# According to PMC5218480 (PLoS ONE, 2017):
# Tested on: MV-4-11 cells
# Experiment: Gene expression microarray analysis (Affymetrix PrimeView) and GSEA
# Type: cell-based, human
# Set-up: RFU PODN (11730768_x_at) / Fold change /veh PODN (11730768_x_at) / RFU LINC00158 (11744669_a_at) / Fold change /veh LINC00158 (11744669_a_at) / RFU DUSP10 (11751237_a_at) / Fold change /veh DUSP10 (11751237_a_at) / RFU ID3 (11757404_x_at) / Fold change /veh ID3 (11757404_x_at) / RFU PLEKHG5 (11737974_s_at) / Fold change /veh PLEKHG5 (11737974_s_at) / RFU LRRC4B (11730491_at) / Fold change /veh LRRC4B (11730491_at) / RFU GIMAP4 (11747438_a_at) / Fold change /veh GIMAP4 (11747438_a_at) / RFU KRT8 (11758183_x_at) / Fold change /veh KRT8 (11758183_x_at) / RFU CNN1 (11734310_a_at) / Fold change /veh CNN1 (11734310_a_at) / RFU VPS37D (11726825_at) / Fold change /veh VPS37D (11726825_at) / RFU C10orf10 (11716522_x_at) / Fold change /veh C10orf10 (11716522_x_at) / RFU KIR2DL2 /// KIR2DL4 /// KIR2DL5A /// KIR2DL5B /// KIR2DS1 /// KIR2DS2 /// KIR2DS3 /// KIR2DS4 /// KIR3DL3 /// KIR3DL3 /// KIR3DS1 (11738374_at) / Fold change /veh KIR2DL2 /// KIR2DL4 /// KIR2DL5A /// KIR2DL5B /// KIR2DS1 /// KIR2DS2 /// KIR2DS3 /// KIR2DS4 /// KIR3DL3 /// KIR3DL3 /// KIR3DS1 (11738374_at) / RFU C1QL1 (11718748_at) / Fold change /veh C1QL1 (11718748_at) / RFU TMPRSS4 (11747572_a_at) / Fold change /veh TMPRSS4 (11747572_a_at) / RFU HAMP (11756126_x_at) / Fold change /veh HAMP (11756126_x_at) / RFU RNFT2 (11725882_a_at) / Fold change /veh RNFT2 (11725882_a_at) / RFU NR4A2 (11747474_a_at) / Fold change /veh NR4A2 (11747474_a_at) / RFU ABCC12 (11746883_a_at) / Fold change /veh ABCC12 (11746883_a_at) / RFU TMEM136 (11760407_x_at) / Fold change /veh TMEM136 (11760407_x_at) / RFU CLDN22 /// WWC2 (11732394_at) / Fold change /veh CLDN22 /// WWC2 (11732394_at) / RFU HLA-DPB1 (11760878_x_at) / Fold change /veh HLA-DPB1 (11760878_x_at) / RFU SPINT1 (11716480_a_at) / Fold change /veh SPINT1 (11716480_a_at) / RFU GAP43 (11754022_s_at) / Fold change /veh GAP43 (11754022_s_at) / RFU A4GNT (11735810_at) / Fold change /veh A4GNT (11735810_at) / RFU PRB3 (11715151_x_at) / Fold change /veh PRB3 (11715151_x_at) / RFU TUBB4B (11761932_at) / Fold change /veh TUBB4B (11761932_at) / RFU CAPN14 (11732068_a_at) / Fold change /veh CAPN14 (11732068_a_at) / RFU TMCC2 (11721928_a_at) / Fold change /veh TMCC2 (11721928_a_at) / RFU IRGQ (11745062_a_at) / Fold change /veh IRGQ (11745062_a_at) / RFU FAM174B (11720279_a_at) / Fold change /veh FAM174B (11720279_a_at) / RFU TMPRSS4 (11748680_a_at) / Fold change /veh TMPRSS4 (11748680_a_at) / RFU FAM212B (11763350_a_at) / Fold change /veh FAM212B (11763350_a_at) / RFU PLEKHG5 (11743358_a_at) / Fold change /veh PLEKHG5 (11743358_a_at) / RFU ZSCAN30 (11745921_a_at) / Fold change /veh ZSCAN30 (11745921_a_at) / RFU CMKLR1 (11741424_a_at) / Fold change /veh CMKLR1 (11741424_a_at) / RFU LOC101060620 /// MAPK8IP1 (11723275_at) / Fold change /veh LOC101060620 /// MAPK8IP1 (11723275_at) / RFU SPTSSB (11747773_x_at) / Fold change /veh SPTSSB (11747773_x_at) / RFU PRSS12 (11739890_at) / Fold change /veh PRSS12 (11739890_at) / RFU BIN1 (11741810_x_at) / Fold change /veh BIN1 (11741810_x_at) / RFU WNT11 (11732464_a_at) / Fold change /veh WNT11 (11732464_a_at) / RFU C10orf10 (11716521_a_at) / Fold change /veh C10orf10 (11716521_a_at) / RFU C5orf56 (11738089_at) / Fold change /veh C5orf56 (11738089_at) / RFU CYB561 (11721691_x_at) / Fold change /veh CYB561 (11721691_x_at) / RFU ANKRD19P (11752326_a_at) / Fold change /veh ANKRD19P (11752326_a_at) / RFU OR2T12 /// OR2T33 /// OR2T8 (11738714_s_at) / Fold change /veh OR2T12 /// OR2T33 /// OR2T8 (11738714_s_at) / RFU VCAN (11748164_a_at) / Fold change /veh VCAN (11748164_a_at) / RFU JSRP1 (11732532_at) / Fold change /veh JSRP1 (11732532_at) / RFU KRTAP10-11 (11738290_x_at) / Fold change /veh KRTAP10-11 (11738290_x_at) / RFU MYO3A (11730013_a_at) / Fold change /veh MYO3A (11730013_a_at) / RFU EBF3 (11725865_a_at) / Fold change /veh EBF3 (11725865_a_at) / RFU CAMK2N1 (11719241_x_at) / Fold change /veh CAMK2N1 (11719241_x_at) / RFU C5orf56 (11738088_a_at) / Fold change /veh C5orf56 (11738088_a_at) / RFU OLFML3 (11715873_a_at) / Fold change /veh OLFML3 (11715873_a_at) / RFU LOC100653217 /// NTM (11731650_a_at) / Fold change /veh LOC100653217 /// NTM (11731650_a_at) / RFU MAPK11 (11762145_a_at) / Fold change /veh MAPK11 (11762145_a_at) / RFU FIZ1 (11724087_x_at) / Fold change /veh FIZ1 (11724087_x_at) / RFU OASL (11726364_x_at) / Fold change /veh OASL (11726364_x_at) / RFU SOX15 (11748057_x_at) / Fold change /veh SOX15 (11748057_x_at) / RFU CD79A (11719716_a_at) / Fold change /veh CD79A (11719716_a_at) / RFU HIST1H1D (11736915_at) / Fold change /veh HIST1H1D (11736915_at) / RFU CASKIN2 (11723855_a_at) / Fold change /veh CASKIN2 (11723855_a_at) / RFU LOC730098 (11760151_x_at) / Fold change /veh LOC730098 (11760151_x_at) / RFU OR4N2 (11742367_at) / Fold change /veh OR4N2 (11742367_at) / RFU PRRT2 (11749266_a_at) / Fold change /veh PRRT2 (11749266_a_at) / RFU SNX32 (11753110_a_at) / Fold change /veh SNX32 (11753110_a_at) / RFU CDHR5 (11726645_a_at) / Fold change /veh CDHR5 (11726645_a_at) / RFU RCAN1 (11760418_a_at) / Fold change /veh RCAN1 (11760418_a_at) / RFU FAM167A (11723789_a_at) / Fold change /veh FAM167A (11723789_a_at) / RFU FAM26E (11764081_at) / Fold change /veh FAM26E (11764081_at) / RFU ISYNA1 (11749810_s_at) / Fold change /veh ISYNA1 (11749810_s_at) / RFU ACY1 (11761880_at) / Fold change /veh ACY1 (11761880_at) / RFU 11764098_at / Fold change /veh 11764098_at / RFU SAMD14 (11745864_x_at) / Fold change /veh SAMD14 (11745864_x_at) / RFU NPB (11741838_a_at) / Fold change /veh NPB (11741838_a_at) / RFU TMPRSS6 (11731388_a_at) / Fold change /veh TMPRSS6 (11731388_a_at) / RFU KRTAP10-2 (11738614_at) / Fold change /veh KRTAP10-2 (11738614_at) / RFU ARHGAP8 /// PRR5-ARHGAP8 (11727945_x_at) / Fold change /veh ARHGAP8 /// PRR5-ARHGAP8 (11727945_x_at) / RFU KRTAP5-7 /// NADSYN1 (11734609_at) / Fold change /veh KRTAP5-7 /// NADSYN1 (11734609_at) / RFU RASL12 (11751679_a_at) / Fold change /veh RASL12 (11751679_a_at) / RFU CDKN2B (11736163_a_at) / Fold change /veh CDKN2B (11736163_a_at) / RFU PRF1 (11729649_at) / Fold change /veh PRF1 (11729649_at) / RFU, ZNF638 /// ZNF638-IT1 / Fold change vs veh, ZNF638 /// ZNF638-IT1 / RFU, PANK3 / Fold change vs veh, PANK3 / RFU, SH3YL1 / Fold change vs veh, SH3YL1 / RFU, ZEB2 / Fold change vs veh, ZEB2 / RFU, NRIP1 / Fold change vs veh, NRIP1 / RFU, PTTG1IP / Fold change vs veh, PTTG1IP / RFU, CAPN2 / Fold change vs veh, CAPN2 / RFU, MED14 / Fold change vs veh, MED14 / RFU, SNORA58 / Fold change vs veh, SNORA58 / RFU, C1orf63 / Fold change vs veh, C1orf63 / RFU, LRRFIP1 / Fold change vs veh, LRRFIP1 / RFU, NDUFAF7 / Fold change vs veh, NDUFAF7 / RFU, SLC12A2 / Fold change vs veh, SLC12A2 / RFU, IBTK / Fold change vs veh, IBTK / RFU, ESF1 / Fold change vs veh, ESF1 / Fold change vs veh, TMEM50B / RFU, TAOK1 / Fold change vs veh, TAOK1 / RFU, ACBD3 / Fold change vs veh, ACBD3 / RFU, TMA16 / Fold change vs veh, TMA16 / RFU, RWDD3 / Fold change vs veh, RWDD3 / RFU, BCAT1 / Fold change vs veh, BCAT1 / RFU, EDEM3 / Fold change vs veh, EDEM3 / RFU, TMEM33 / Fold change vs veh, TMEM33 / RFU, WDR75 / Fold change vs veh, WDR75 / RFU, AHCTF1 / Fold change vs veh, AHCTF1 / RFU, TFRC / Fold change vs veh, TFRC / RFU, ZDHHC17 / Fold change vs veh, ZDHHC17 / RFU, NOM1 / Fold change vs veh, NOM1 / RFU, ARL8B / Fold change vs veh, ARL8B / RFU, ZBTB11 / Fold change vs veh, ZBTB11 / RFU, TAMM41 / Fold change vs veh, TAMM41 / RFU, KIAA1704 /// LOC100996395 / Fold change vs veh, KIAA1704 /// LOC100996395 / RFU, ING1 / Fold change vs veh, ING1 / RFU, TRMT61B / Fold change vs veh, TRMT61B / RFU, FUBP3 / Fold change vs veh, FUBP3 / RFU, TP53 / Fold change vs veh, TP53 / RFU, TNKS2 / Fold change vs veh, TNKS2 / RFU, ZFP14 / Fold change vs veh, ZFP14 / RFU, ACTR2 / Fold change vs veh, ACTR2 / RFU, PPP3R1 / Fold change vs veh, PPP3R1 / RFU, PIK3R1 / Fold change vs veh, PIK3R1 / RFU, HNRNPA1 / Fold change vs veh, HNRNPA1 / RFU, RNF170 / Fold change vs veh, RNF170 / RFU, ZNF28 / Fold change vs veh, ZNF28 / RFU, RNGTT / Fold change vs veh, RNGTT / RFU, OGT / Fold change vs veh, OGT / RFU, BRD1 / Fold change vs veh, BRD1 / RFU, MARS / Fold change vs veh, MARS / RFU, ZNF655 / Fold change vs veh, ZNF655 / RFU, FAHD1 / Fold change vs veh, FAHD1 / RFU, BDP1 / Fold change vs veh, BDP1 / RFU, LRRCC1 / Fold change vs veh, LRRCC1 / RFU, ARID1A / Fold change vs veh, ARID1A / RFU, ZNF146 / Fold change vs veh, ZNF146 / RFU, ZNF330 / Fold change vs veh, ZNF330 / RFU, GPN3 / Fold change vs veh, GPN3 / RFU, C9orf123 / Fold change vs veh, C9orf123 / RFU, N4BP2L2 / Fold change vs veh, N4BP2L2 / RFU, ARFIP1 / Fold change vs veh, ARFIP1 / RFU, FAM179B / Fold change vs veh, FAM179B / RFU, BCL10 / Fold change vs veh, BCL10 / RFU, UHRF1BP1L / Fold change vs veh, UHRF1BP1L / RFU, BET1 / Fold change vs veh, BET1 / RFU, CNOT2 / Fold change vs veh, CNOT2 / RFU, ZNF268 / Fold change vs veh, ZNF268 / Fold change vs veh, ZNF507 / RFU, DGCR2 / Fold change vs veh, DGCR2 / RFU, WDSUB1 / Fold change vs veh, WDSUB1 / Fold change vs veh, HSP90B1 /// MIR3652 / RFU, ADSS / Fold change vs veh, ADSS / RFU, GK / Fold change vs veh, GK / RFU, ZNF148 / Fold change vs veh, ZNF148 / RFU, TAF9 / Fold change vs veh, TAF9 / RFU, SLC1A5 / Fold change vs veh, SLC1A5 / RFU, SLMO2 / Fold change vs veh, SLMO2 / RFU, ABCC4 / Fold change vs veh, ABCC4 / RFU, LOC101060439 /// RAP1B / Fold change vs veh, LOC101060439 /// RAP1B / RFU, RFX7 / Fold change vs veh, RFX7 / RFU, GTPBP10 / Fold change vs veh, GTPBP10 / RFU, CNEP1R1 / Fold change vs veh, CNEP1R1 / RFU, BIVM-ERCC5 /// ERCC5 / Fold change vs veh, BIVM-ERCC5 /// ERCC5 / RFU, ILF3 / Fold change vs veh, ILF3 / RFU 11762660_at / Fold change /veh 11762660_at / RFU VCAN (11757783_s_at) / Fold change /veh VCAN (11757783_s_at) / RFU DDX43 (11728927_at) / Fold change /veh DDX43 (11728927_at) / RFU KRT8 (11758188_x_at) / Fold change /veh KRT8 (11758188_x_at) / RFU NKD1 (11759106_at) / Fold change /veh NKD1 (11759106_at) / RFU SRD5A1 (11742802_a_at) / Fold change /veh SRD5A1 (11742802_a_at) / RFU TPSAB1 /// TPSB2 (11721975_s_at) / Fold change /veh TPSAB1 /// TPSB2 (11721975_s_at) / RFU GSTM3 (11746129_a_at) / Fold change /veh GSTM3 (11746129_a_at) / RFU IL23R (11737362_x_at) / Fold change /veh IL23R (11737362_x_at) / RFU TMEM51 (11727254_a_at) / Fold change /veh TMEM51 (11727254_a_at) / RFU PIWIL2 (11732686_x_at) / Fold change /veh PIWIL2 (11732686_x_at) / RFU ORM1 (11744905_x_at) / Fold change /veh ORM1 (11744905_x_at) / RFU CCDC152 (11743942_at) / Fold change /veh CCDC152 (11743942_at) / RFU ECM1 (11717891_a_at) / Fold change /veh ECM1 (11717891_a_at) / RFU IL23R (11748794_a_at) / Fold change /veh IL23R (11748794_a_at) / RFU TNFAIP8L3 (11732012_x_at) / Fold change /veh TNFAIP8L3 (11732012_x_at) / RFU MBOAT4 (11741988_at) / Fold change /veh MBOAT4 (11741988_at) / RFU 11764193_at / Fold change /veh 11764193_at / RFU TMEM53 (11763286_at) / Fold change /veh TMEM53 (11763286_at) / RFU MAGEB2 (11727129_at) / Fold change /veh MAGEB2 (11727129_at) / RFU TMEM200A (11744735_a_at) / Fold change /veh TMEM200A (11744735_a_at) / RFU CCDC152 (11751479_a_at) / Fold change /veh CCDC152 (11751479_a_at) / RFU FAM211A (11726209_a_at) / Fold change /veh FAM211A (11726209_a_at) / RFU RGS16 (11746705_a_at) / Fold change /veh RGS16 (11746705_a_at) / RFU VCAN (11755009_s_at) / Fold change /veh VCAN (11755009_s_at) / RFU RHOB (11743442_s_at) / Fold change /veh RHOB (11743442_s_at) / RFU RGS16 (11720943_a_at) / Fold change /veh RGS16 (11720943_a_at) / RFU RGS16 (11720944_at) / Fold change /veh RGS16 (11720944_at) / RFU, VPS4B / Fold change vs veh, VPS4B / RFU, CREB1 / Fold change vs veh, CREB1 / RFU, DNAJC13 / Fold change vs veh, DNAJC13 / RFU, GNAQ / Fold change vs veh, GNAQ / RFU, CDK5R1 / Fold change vs veh, CDK5R1 / RFU, ZRANB3 / Fold change vs veh, ZRANB3 / RFU, CUL4A / Fold change vs veh, CUL4A / RFU, CCNY / Fold change vs veh, CCNY / RFU, UFL1 / Fold change vs veh, UFL1 / RFU, COG3 / Fold change vs veh, COG3 / RFU, DIAPH2 / Fold change vs veh, DIAPH2 / RFU, SKA2 / Fold change vs veh, SKA2 / RFU, AFF3 / Fold change vs veh, AFF3 / RFU, LMF1 / Fold change vs veh, LMF1 / RFU, IPO11 / Fold change vs veh, IPO11 / RFU, DFFB / Fold change vs veh, DFFB / RFU, FOXP1 / Fold change vs veh, FOXP1 / RFU, CARD8 / Fold change vs veh, CARD8 / RFU, STRN3 / Fold change vs veh, STRN3 / RFU, ADK / Fold change vs veh, ADK / RFU, RASSF2 / Fold change vs veh, RASSF2 / RFU, WIPF1 / Fold change vs veh, WIPF1 / RFU, LARP1B / Fold change vs veh, LARP1B / RFU, RASA1 / Fold change vs veh, RASA1 / RFU, RB1 / Fold change vs veh, RB1 / RFU, PPFIA1 / Fold change vs veh, PPFIA1 / RFU, MAT2A / Fold change vs veh, MAT2A / RFU, CCT5 / Fold change vs veh, CCT5 / RFU, WDR92 / Fold change vs veh, WDR92 / RFU, CUX1 / Fold change vs veh, CUX1 / RFU, TTC7A / Fold change vs veh, TTC7A / RFU, TMEM135 / Fold change vs veh, TMEM135 / RFU, DEPTOR / Fold change vs veh, DEPTOR / RFU, CPM / Fold change vs veh, CPM / RFU, DNAJB6 / Fold change vs veh, DNAJB6 / RFU, CACNA2D3 / Fold change vs veh, CACNA2D3 / RFU, DTX4 / Fold change vs veh, DTX4 / RFU, TFCP2 / Fold change vs veh, TFCP2 / RFU, GMCL1 /// GMCL1P1 / Fold change vs veh, GMCL1 /// GMCL1P1 / RFU, AEBP2 / Fold change vs veh, AEBP2 / RFU, SNHG1 /// SNORD22 /// SNORD25 /// SNORD26 /// SNORD27 /// SNORD28 /// SNORD29 /// SNORD31 / Fold change vs veh, SNHG1 /// SNORD22 /// SNORD25 /// SNORD26 /// SNORD27 /// SNORD28 /// SNORD29 /// SNORD31 / Fold change (Aza/veh), C12orf56 (ProbeSet 11735607_a_at) / Fold change (ACY-1035/veh), C12orf56 (ProbeSet 11735607_a_at) / Fold change (Aza/veh), FGFR1OP (ProbeSet 11751329_s_at) / Fold change (ACY-1035/veh), FGFR1OP (ProbeSet 11751329_s_at) / Fold change (Aza/veh), VPS36 (ProbeSet 11739960_a_at) / Fold change (ACY-1035/veh), VPS36 (ProbeSet 11739960_a_at) / RFU SYPL1 (11715823_x_at) / Fold change /veh SYPL1 (11715823_x_at) / RFU IGFBP7 (11715501_s_at) / Fold change /veh IGFBP7 (11715501_s_at) / RFU REEP3 (11722064_at) / Fold change /veh REEP3 (11722064_at) / RFU IGLL1 (11728026_x_at) / Fold change /veh IGLL1 (11728026_x_at): dose or concentration left out as unconfirmed
# Conditions: ProbeSet 11763895_x_at; LIST B
smiles,measurement,value
Nc1ccc(-c2cccs2)cc1NC(=O)c1ccc2c(c1)cc(C1CC1)n2CCN1CCOCC1 [ACY-1035],"RFU, SNORA58",14.97 RFU
